The conditions of series [1]: the molecule shown is the open-chain precursor, 3 steps.
In the next series the target is human C5aR1 (Homo sapiens, UniProt P21730). Description: cell-based. The following applies: SEM.
For series [2] the following is noted: the molecule shown is the open-chain precursor.
The conditions of series [3]: the molecule shown is the open-chain precursor. The source holds these as a separate data set.

For 19 compounds, ring closure, yield over several steps, EC50 and ring closure, conversion by HPLC (% (HPLC peak area)) results are on record in article PMC11151825 (RSC Chemical Biology, 2024).

Like-named read-outs stand apart in the source and are kept apart here. Square brackets hold non-standard residues; d marks the D form. Peptide text beside a SMILES is read from it. Abu = CC[C@H](N)C(=O)O

human C5aR1, sequence (P21730 whole entry): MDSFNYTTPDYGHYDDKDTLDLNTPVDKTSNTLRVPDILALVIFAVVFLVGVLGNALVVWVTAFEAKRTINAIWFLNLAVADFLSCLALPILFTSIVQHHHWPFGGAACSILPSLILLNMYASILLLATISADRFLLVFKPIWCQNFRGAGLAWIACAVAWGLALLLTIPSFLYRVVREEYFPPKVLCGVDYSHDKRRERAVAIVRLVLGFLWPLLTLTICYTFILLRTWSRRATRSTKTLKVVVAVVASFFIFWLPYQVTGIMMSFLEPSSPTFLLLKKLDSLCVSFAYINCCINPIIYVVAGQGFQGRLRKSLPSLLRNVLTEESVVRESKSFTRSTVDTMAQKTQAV

Compound `CC(C)CC(NCCCC[C@@H]1NC(=O)[C@@H](Cc2c[nH]c3ccccc23)NC(=O)[C@H](Cc2ccccc2)NC(=O)[C@@H](NC(=O)[C@H](N)Cc2ccccc2)CSSC[C@@H](C(=O)N[C@H](C(=O)N[C@H](C(=O)N[C@H]2CSSC[C@@H]3NC(=O)CNC(=O)[C@@H]4CCCN4C(=O)[C@H]([C@@H](C)O)NC(=O)[C@H](CC(N)=O)NC(=O)[C@@H]4CSSC[C@@H](C(=O)N[C@H](C(=O)O)[C@@H](C)O)NC(=O)[C@H](C(C)C)NC(=O)[C@@H]5CCCN5C(=O)[C@H](Cc5c[nH]c6ccccc56)NC(=O)[C@H](CO)NC(=O)[C@H](CSSC[C@H](NC(=O)[C@H]([C@@H](C)O)NC(=O)[C@H](CCC(N)=O)NC(=O)CNC2=O)C(=O)N[C@@H](C(C)C)C(=O)NCC(=O)NCC(=O)N[C@@H]([C@@H](C)O)C(=O)N4)NC(=O)[C@H]([C@@H](C)O)NC3=O)C(C)C)[C@@H](C)O)NC(=O)[C@H]([C@@H](C)O)NC1=O)=C1C(=O)CC(C)(C)CC1=O` returned a ring closure, yield over several steps in series [1] (96-membered ring) of 16.1%. On the same count and under the same terms, then `CC(C)CC(NCCCC[C@H](NC(=O)[C@@H](N)Cc1ccccc1)C(=O)N1CCC[C@H]1C(=O)N[C@@H](CC(C)C)C(=O)N[C@@H](C)C(=O)N[C@@H](C)C(=O)N[C@H](C)C(=O)N[C@@H](CCCNC(=N)N)C(=O)N[C@H](C(=O)N[C@H]1CSSC[C@@H]2NC(=O)CNC(=O)[C@@H]3CCCN3C(=O)[C@H]([C@@H](C)O)NC(=O)[C@H](CC(N)=O)NC(=O)[C@@H]3CSSC[C@@H](C(=O)N[C@H](C(=O)O)[C@@H](C)O)NC(=O)[C@H](C(C)C)NC(=O)[C@@H]4CCCN4C(=O)[C@H](Cc4c[nH]c5ccccc45)NC(=O)[C@H](CO)NC(=O)[C@H](CSSC[C@H](NC(=O)[C@H]([C@@H](C)O)NC(=O)[C@H](CCC(N)=O)NC(=O)CNC1=O)C(=O)N[C@@H](C(C)C)C(=O)NCC(=O)NCC(=O)N[C@@H]([C@@H](C)O)C(=O)N3)NC(=O)[C@H]([C@@H](C)O)NC2=O)C(C)C)=C1C(=O)CC(C)(C)CC1=O`, with 22%. `CC[C@H](C)[C@@H]1NC(=O)[C@@H]2CCCN2C(=O)[C@@H]2CCCN2C(=O)[C@H]([C@@H](C)CC)NC(=O)[C@H](CO)NC(=O)[C@H](CCCCNC(CC(C)C)=C2C(=O)CC(C)(C)CC2=O)NC(=O)[C@H]([C@@H](C)O)NC(=O)[C@@H](NC(=O)CN)CSSC[C@@H](C(=O)NCC(=O)N[C@H](C(=O)N[C@H]2CSSC[C@@H]3NC(=O)CNC(=O)[C@@H]4CCCN4C(=O)[C@H]([C@@H](C)O)NC(=O)[C@H](CC(N)=O)NC(=O)[C@@H]4CSSC[C@@H](C(=O)N[C@H](C(=O)O)[C@@H](C)O)NC(=O)[C@H](C(C)C)NC(=O)[C@@H]5CCCN5C(=O)[C@H](Cc5c[nH]c6ccccc56)NC(=O)[C@H](CO)NC(=O)[C@H](CSSC[C@H](NC(=O)[C@H]([C@@H](C)O)NC(=O)[C@H](CCC(N)=O)NC(=O)CNC2=O)C(=O)N[C@@H](C(C)C)C(=O)NCC(=O)NCC(=O)N[C@@H]([C@@H](C)O)C(=O)N4)NC(=O)[C@H]([C@@H](C)O)NC3=O)C(C)C)NC1=O` came in with a ring closure, yield over several steps in series [1] (105-membered ring) of 18.7%.

`CC[C@H](C)[C@H](NC(=O)[C@H](CCCNC(=N)N)NC(=O)[C@H](CCCNC(=N)N)NC(=O)[C@H](CC(C)C)NC(=O)[C@H](Cc1ccccc1)NC(=O)CNC(=O)CNC(=O)[C@@H](N)Cc1ccc(O)cc1)C(=O)N[C@@H](CCCNC(=N)N)C(=O)N1CCC[C@H]1C(=O)N[C@@H](CCCCNC(CC(C)C)=C1C(=O)CC(C)(C)CC1=O)C(=O)N[C@@H](CC(C)C)C(=O)N[C@@H](CCCCNC(CC(C)C)=C1C(=O)CC(C)(C)CC1=O)C(=O)NCC(=O)N[C@H]1CSSC[C@@H]2NC(=O)[C@H](C(C)C)NC(=O)[C@@H]3CCCN3C(=O)[C@H](CC(C)C)NC(=O)CNC(=O)[C@H](CC(N)=O)NC(=O)[C@H](CCCNC(=N)N)NC(=O)[C@H]([C@@H](C)O)NC(=O)[C@@H]3CSSC[C@@H](C(=O)N[C@@H](CC(N)=O)C(=O)O)NC(=O)[C@H]([C@@H](C)O)NC(=O)CNC(=O)CNC(=O)[C@H](C(C)C)NC(=O)[C@H](CSSC[C@H](NC(=O)[C@H]([C@@H](C)O)NC1=O)C(=O)N[C@@H](CO)C(=O)N[C@@H](Cc1c[nH]c4ccccc14)C(=O)N1CCC[C@H]1C(=O)N[C@@H](C(C)C)C(=O)N3)NC(=O)[C@H]([C@@H](C)O)NC(=O)[C@H](CCC(N)=O)NC(=O)CNC2=O` registered a ring closure, yield over several steps in series [1] (120-membered ring) of 11.2%. Regarding `CC[C@H](C)[C@H](NC(=O)[C@H](CCCNC(=N)N)NC(=O)[C@H](CCCNC(=N)N)NC(=O)[C@H](CC(C)C)NC(=O)[C@H](Cc1ccccc1)NC(=O)CNC(=O)CNC(=O)[C@@H](N)Cc1ccc(O)cc1)C(=O)N[C@@H](CCCNC(=N)N)C(=O)N1CCC[C@H]1C(=O)N[C@@H](CCCCNC(CC(C)C)=C1C(=O)CC(C)(C)CC1=O)C(=O)N[C@@H](CC(C)C)C(=O)N[C@@H](CCCCNC(CC(C)C)=C1C(=O)CC(C)(C)CC1=O)C(=O)N[C@H](C(=O)N[C@H]1CSSC[C@@H]2NC(=O)CNC(=O)[C@@H]3CCCN3C(=O)[C@H]([C@@H](C)O)NC(=O)[C@H](CC(N)=O)NC(=O)[C@@H]3CSSC[C@@H](C(=O)N[C@H](C(=O)O)[C@@H](C)O)NC(=O)[C@H](C(C)C)NC(=O)[C@@H]4CCCN4C(=O)[C@H](Cc4c[nH]c5ccccc45)NC(=O)[C@H](CO)NC(=O)[C@H](CSSC[C@H](NC(=O)[C@H]([C@@H](C)O)NC(=O)[C@H](CCC(N)=O)NC(=O)CNC1=O)C(=O)N[C@@H](C(C)C)C(=O)NCC(=O)NCC(=O)N[C@@H]([C@@H](C)O)C(=O)N3)NC(=O)[C@H]([C@@H](C)O)NC2=O)C(C)C`, the ring closure, yield over several steps in series [1] (111-membered ring) came out at 17.4%. In turn, `CC[C@H](C)[C@H](NC(=O)[C@H](CCCNC(=N)N)NC(=O)[C@H](CCCNC(=N)N)NC(=O)[C@H](CC(C)C)NC(=O)[C@H](Cc1ccccc1)NC(=O)CNC(=O)CNC(=O)[C@@H](N)Cc1ccc(O)cc1)C(=O)N[C@@H](CCCNC(=N)N)C(=O)N1CCC[C@H]1C(=O)N[C@@H](CCCCNC(CC(C)C)=C1C(=O)CC(C)(C)CC1=O)C(=O)N[C@@H](CC(C)C)C(=O)N[C@@H](CCCCNC(CC(C)C)=C1C(=O)CC(C)(C)CC1=O)C(=O)N[C@H](C(=O)N[C@H]1CSSC[C@@H]2NC(=O)[C@H]([C@@H](C)O)NC(=O)CNC(=O)CNC(=O)[C@H](C(C)C)NC(=O)[C@@H]3CSSC[C@@H](C(=O)N[C@@H](CO)C(=O)O)NC(=O)[C@H]([C@@H](C)O)NC(=O)[C@H](CSSC[C@H](NC(=O)[C@H](C(C)C)NC(=O)[C@@H]4CCCN4C(=O)[C@H](CC(C)C)NC(=O)CNC(=O)[C@H](CC(N)=O)NC(=O)[C@H](CCCNC(=N)N)NC(=O)[C@H]([C@@H](C)O)NC1=O)C(=O)NCC(=O)N[C@@H](CCC(N)=O)C(=O)N[C@@H]([C@@H](C)O)C(=O)N3)NC(=O)CNC(=O)[C@@H]1CCCN1C(=O)[C@H]([C@@H](C)O)NC(=O)[C@H](CC(N)=O)NC2=O)C(C)C` had a ring closure, yield over several steps in series [1] (120-membered ring) of 7.1%. The compound `CC[C@H](NC(=O)[C@H](C)NC(=O)[C@H](CC(C)C)NC(=O)[C@@H]1CCCN1C(=O)[C@H](CCCCNC(CC(C)C)=C1C(=O)CC(C)(C)CC1=O)NC(=O)[C@@H](N)Cc1ccccc1)C(=O)N[C@H](C)C(=O)N[C@@H](CCCNC(=N)N)C(=O)N[C@H](C(=O)N[C@H]1CSSC[C@@H]2NC(=O)CNC(=O)[C@@H]3CCCN3C(=O)[C@H]([C@@H](C)O)NC(=O)[C@H](CC(N)=O)NC(=O)[C@@H]3CSSC[C@@H](C(=O)N[C@H](C(=O)O)[C@@H](C)O)NC(=O)[C@H](C(C)C)NC(=O)[C@@H]4CCCN4C(=O)[C@H](Cc4c[nH]c5ccccc45)NC(=O)[C@H](CO)NC(=O)[C@H](CSSC[C@H](NC(=O)[C@H]([C@@H](C)O)NC(=O)[C@H](CCC(N)=O)NC(=O)CNC1=O)C(=O)N[C@@H](C(C)C)C(=O)NCC(=O)NCC(=O)N[C@@H]([C@@H](C)O)C(=O)N3)NC(=O)[C@H]([C@@H](C)O)NC2=O)C(C)C` registered a ring closure, yield over several steps in series [1] (96-membered ring) of 1.1%.

On human C5aR1, `CC[C@H](NC(=O)[C@H](C)NC(=O)[C@H](CC(C)C)NC(=O)[C@@H]1CCCN1C(=O)[C@H](CCCCN)NC(=O)[C@@H](N)Cc1ccccc1)C(=O)N[C@H](C)C(=O)N[C@@H](CCCNC(=N)N)C(=O)O` [BM221] (H-FKPLA[Abu][dA]R-OH) yielded a 50% effective concentration (EC50) of 2.8 ± 0.9 nM. Consider “H-GCTCSWPVCTRNGLPVCGQTCVGGTCN-OH (6 free Cys)”, for which the ring closure, conversion by HPLC (% (HPLC peak area)) in series [2] was 2.6; in series [3], 9.5. In turn, “H-GCYFQNCPRGVCGQTCVGGTCNTPGCTCSWPVCT-OH (epitope Cys2-Cys7 disulfide; scaffold I-IV, II-V, III-VI)” showed a ring closure, yield over several steps in series [1] (102-membered ring) of 1.7%. Consider “H-GCYIQNCPLGVCGQTCVGGTCNTPGCTCSWPVCT-OH (epitope Cys2-Cys7 disulfide; scaffold I-IV, II-V, III-VI)”, for which, in series [1] (102-membered ring), the ring closure, yield over several steps was determined as 10.9%. On to “H-RNGLPVCGETCVGGTCNTPGCTCSWPVCT-OH (disulfides I-IV, II-V, III-VI)”, for which, in series [1] (87-membered ring), the ring closure, yield over several steps is 10.6%. Same read-out and setting: then “H-RNGLPVCGQTCVGGTCNTPGCTCSWPVCT-OH (disulfides I-IV, II-V, III-VI)”, with 24.8%. For the compound “H-TCNTPGCTCSWPVCTRNGLPVCGQTCV-OH (6 free Cys)”, the ring closure, conversion by HPLC (% (HPLC peak area)) in series [2] came to 3.7; in series [3], 8.1.

Consider “H-VCGATCVGGTCNTPGCTCSWPVCT-OH (6 free Cys)”, for which the ring closure, conversion by HPLC (% (HPLC peak area)) in series [2] came to 3.8; in series [3], 4.6.

On to “H-VCGETCVGGTCNTPGCTCSWPVCT-OH (6 free Cys)”, for which the ring closure, conversion by HPLC (% (HPLC peak area)) in series [2] came out at 15.4; in series [3], 23.4. On the same counts, the results for “H-VCGQTCVGGTCNTPGCTCSWPVCT-OH (6 free Cys)” are 9.4 and 16.1. Taken in the same sequence, the figures for “H-VCTRNGLPVCGQTCVGGTCNTPGCTCS-OH (6 free Cys)” were 27 and 30.5.

As for “cyclo-(CGQTCVGGTCNTPGCTCSWPVCTRNGLPV) (6 free Cys)”, the ring closure, conversion by HPLC (% (HPLC peak area)) in series [2] was 23.5; in series [3], 26.1.
